Data from PubChem BioAssay AID1259407 (Chemical Carcinogenesis Research Information System (CCRIS), 2018).
The source made the active and inactive calls. No rule for the calls is given here.

System: CCRIS mutagenicity, Ames/micronucleus/aberration tests
Assay: CCRIS mutagenicity studies
[1] = Test System: AMES SALMONELLA TYPHIMURIUM, Strain/Indicator: TA98, Metabolic Activation: NONE, Method: PREINCUBATION
[2] = Test System: AMES SALMONELLA TYPHIMURIUM, Strain/Indicator: TA100, Metabolic Activation: NONE, Method: PREINCUBATION
[3] = Test System: AMES SALMONELLA TYPHIMURIUM, Strain/Indicator: TA1535, Metabolic Activation: NONE, Method: PREINCUBATION
[4] = Test System: AMES SALMONELLA TYPHIMURIUM, Strain/Indicator: TA1537, Metabolic Activation: NONE, Method: PREINCUBATION

CCOCCCl
mutagenic call [1]: inactive; negative | mutagenic call (Test System: AMES SALMONELLA TYPHIMURIUM, Strain/Indicator: TA98, Metabolic Activation: RAT, LIVER, S-9, PHENOBARBITAL AND BETA-NAPHTHOFLAVONE, Method: PREINCUBATION): inactive; negative | mutagenic call [2]: inactive; negative | mutagenic call (Test System: AMES SALMONELLA TYPHIMURIUM, Strain/Indicator: TA100, Metabolic Activation: RAT, LIVER, S-9, PHENOBARBITAL AND BETA-NAPHTHOFLAVONE, Method: PREINCUBATION): inactive; negative | mutagenic call (Test System: AMES SALMONELLA TYPHIMURIUM, Strain/Indicator: TA102, Metabolic Activation: NONE, Method: PREINCUBATION): inactive; negative | mutagenic call (Test System: AMES SALMONELLA TYPHIMURIUM, Strain/Indicator: TA102, Metabolic Activation: RAT, LIVER, S-9, PHENOBARBITAL AND BETA-NAPHTHOFLAVONE, Method: PREINCUBATION): inactive; negative | mutagenic call (Test System: AMES SALMONELLA TYPHIMURIUM, Strain/Indicator: TA104, Metabolic Activation: NONE, Method: PREINCUBATION): active; positive | mutagenic call (Test System: AMES SALMONELLA TYPHIMURIUM, Strain/Indicator: TA104, Metabolic Activation: RAT, LIVER, S-9, PHENOBARBITAL AND BETA-NAPHTHOFLAVONE, Method: PREINCUBATION): inactive; negative | mutagenic call [3]: inactive; negative | mutagenic call (Test System: AMES SALMONELLA TYPHIMURIUM, Strain/Indicator: TA1535, Metabolic Activation: RAT, LIVER, S-9, PHENOBARBITAL AND BETA-NAPHTHOFLAVONE, Method: PREINCUBATION): inactive; negative | mutagenic call [4]: inactive; negative | mutagenic call (Test System: AMES SALMONELLA TYPHIMURIUM, Strain/Indicator: TA1537, Metabolic Activation: RAT, LIVER, S-9, PHENOBARBITAL AND BETA-NAPHTHOFLAVONE, Method: PREINCUBATION): inactive; negative | mutagenic call (Test System: E. COLI, Strain/Indicator: WP2UVRA/PKM101, Metabolic Activation: NONE, Method: PREINCUBATION): inactive; negative | mutagenic call (Test System: E. COLI, Strain/Indicator: WP2UVRA/PKM101, Metabolic Activation: RAT, LIVER, S-9, PHENOBARBITAL AND BETA-NAPHTHOFLAVONE, Method: PREINCUBATION): inactive; negative | mutagenic call (Test System: E. COLI, Strain/Indicator: WP2UVRA, Metabolic Activation: NONE, Method: PREINCUBATION): inactive; negative | mutagenic call (Test System: E. COLI, Strain/Indicator: WP2UVRA, Metabolic Activation: RAT, LIVER, S-9, PHENOBARBITAL AND BETA-NAPHTHOFLAVONE, Method: PREINCUBATION): inactive; negative

OCCN(CCO)CCO
mutagenic call (End Point: IN VITRO CHROMOSOMAL ABERRATIONS, Test System: CHINESE HAMSTER OVARY CELLS, Metabolic Activation: NONE): inactive; negative | mutagenic call (End Point: IN VITRO CHROMOSOMAL ABERRATIONS, Test System: CHINESE HAMSTER OVARY CELLS, Metabolic Activation: RAT, LIVER, S-9, AROCLOR 1254): inactive; negative | mutagenic call (End Point: IN VITRO CHROMOSOMAL ABERRATIONS, Test System: CHO, Metabolic Activation: NONE): inactive; negative | mutagenic call (End Point: IN VITRO CHROMOSOMAL ABERRATIONS, Test System: CHO, Metabolic Activation: RAT, LIVER, S-9, AROCLOR 1254): inactive; negative | mutagenic call (End Point: IN VIVO MICRONUCLEUS, Test System: POLYCHROMATIC BLOOD LYMPHOCYTES, Species: MOUSE, Strain/Sex: B6C3F1/MALE, FEMALE, Route: DERMAL): inactive; negative | mutagenic call (Test System: AMES SALMONELLA TYPHIMURIUM, Strain/Indicator: TA98, Metabolic Activation: HAMSTER LIVER S-9, AROCLOR-1254 (10%), Method: PREINCUBATION): inactive; negative | mutagenic call (Test System: AMES SALMONELLA TYPHIMURIUM, Strain/Indicator: TA98, Metabolic Activation: HAMSTER, LIVER, S-9 (10%), AROCLOR 1254, Method: PREINCUBATION): inactive; negative | mutagenic call [1]: inactive; negative | mutagenic call (Test System: AMES SALMONELLA TYPHIMURIUM, Strain/Indicator: TA98, Metabolic Activation: RAT LIVER S-9, AROCLOR-1254 (10%), Method: PREINCUBATION): inactive; negative | mutagenic call (Test System: AMES SALMONELLA TYPHIMURIUM, Strain/Indicator: TA98, Metabolic Activation: RAT, LIVER, S-9 (10%), AROCLOR 1254, Method: PREINCUBATION): inactive; negative | mutagenic call (Test System: AMES SALMONELLA TYPHIMURIUM, Strain/Indicator: TA100, Metabolic Activation: HAMSTER LIVER S-9, AROCLOR-1254 (10%), Method: PREINCUBATION): inactive; negative | mutagenic call (Test System: AMES SALMONELLA TYPHIMURIUM, Strain/Indicator: TA100, Metabolic Activation: HAMSTER, LIVER, S-9 (10%), AROCLOR 1254, Method: PREINCUBATION): inactive; negative | mutagenic call [2]: inactive; negative | mutagenic call (Test System: AMES SALMONELLA TYPHIMURIUM, Strain/Indicator: TA100, Metabolic Activation: RAT LIVER S-9, AROCLOR-1254 (10%), Method: PREINCUBATION): inactive; negative | mutagenic call (Test System: AMES SALMONELLA TYPHIMURIUM, Strain/Indicator: TA100, Metabolic Activation: RAT, LIVER, S-9 (10%), AROCLOR 1254, Method: PREINCUBATION): inactive; negative | mutagenic call (Test System: AMES SALMONELLA TYPHIMURIUM, Strain/Indicator: TA1535, Metabolic Activation: HAMSTER LIVER S-9, AROCLOR-1254 (10%), Method: PREINCUBATION): inactive; negative | mutagenic call (Test System: AMES SALMONELLA TYPHIMURIUM, Strain/Indicator: TA1535, Metabolic Activation: HAMSTER, LIVER, S-9 (10%), AROCLOR 1254, Method: PREINCUBATION): inactive; negative | mutagenic call [3]: inactive; negative | mutagenic call (Test System: AMES SALMONELLA TYPHIMURIUM, Strain/Indicator: TA1535, Metabolic Activation: RAT LIVER S-9, AROCLOR-1254 (10%), Method: PREINCUBATION): inactive; negative | mutagenic call (Test System: AMES SALMONELLA TYPHIMURIUM, Strain/Indicator: TA1535, Metabolic Activation: RAT, LIVER, S-9 (10%), AROCLOR 1254, Method: PREINCUBATION): inactive; negative | mutagenic call (Test System: AMES SALMONELLA TYPHIMURIUM, Strain/Indicator: TA1537, Metabolic Activation: HAMSTER LIVER S-9, AROCLOR-1254 (10%), Method: PREINCUBATION): inactive; negative | mutagenic call (Test System: AMES SALMONELLA TYPHIMURIUM, Strain/Indicator: TA1537, Metabolic Activation: HAMSTER, LIVER, S-9 (10%), AROCLOR 1254, Method: PREINCUBATION): inactive; negative | mutagenic call [4]: inactive; negative | mutagenic call (Test System: AMES SALMONELLA TYPHIMURIUM, Strain/Indicator: TA1537, Metabolic Activation: RAT LIVER S-9, AROCLOR-1254 (10%), Method: PREINCUBATION): inactive; negative | mutagenic call (Test System: AMES SALMONELLA TYPHIMURIUM, Strain/Indicator: TA1537, Metabolic Activation: RAT, LIVER, S-9 (10%), AROCLOR 1254, Method: PREINCUBATION): inactive; negative

CN(C)CCNC(=O)c1cccc2ncc(-c3ccccc3)nc12
mutagenic call (Test System: AMES SALMONELLA TYPHIMURIUM, Strain/Indicator: TA1537, Metabolic Activation: NONE, Method: STANDARD PLATE): active; positive

CSCCCCC(=NOS(=O)(=O)O)S[C@@H]1O[C@H](CO)[C@@H](O)[C@H](O)[C@H]1O
mutagenic call (End Point: IN VITRO MICRONUCLEUS, Test System: HUMAN T-LYMPHOCYTES, Metabolic Activation: NONE): inactive; negative

O=[N+]([O-])c1cnc(CO)n1CCO
mutagenic call (Test System: AMES SALMONELLA TYPHIMURIUM, Strain/Indicator: TA100, Metabolic Activation: NONE, Method: STANDARD PLATE): active; positive | mutagenic call (Test System: AMES SALMONELLA TYPHIMURIUM, Strain/Indicator: TA100, Metabolic Activation: RAT, LIVER, S-9, AROCLOR 1254, Method: STANDARD PLATE): active; positive

Nc1ccccc1O
mutagenic call (Test System: AMES SALMONELLA TYPHIMURIUM, Strain/Indicator: TA98, Metabolic Activation: NONE): inactive; negative | mutagenic call (Test System: AMES SALMONELLA TYPHIMURIUM, Strain/Indicator: TA98, Metabolic Activation: S-9): inactive; negative

COc1c2cc3c(cc2nc2occc12)OCO3
mutagenic call (Test System: AMES SALMONELLA TYPHIMURIUM, Strain/Indicator: TA98, Metabolic Activation: RAT, LIVER, S-9, PHENOBARBITAL, Method: STANDARD PLATE): active; positive | mutagenic call (Test System: AMES SALMONELLA TYPHIMURIUM, Strain/Indicator: TA100, Metabolic Activation: RAT, LIVER, S-9, PHENOBARBITAL, Method: STANDARD PLATE): active; positive

O=c1ccn([C@H]2C[C@H](O)[C@@H](CO)O2)c(=O)[nH]1
mutagenic call (Test System: AMES SALMONELLA TYPHIMURIUM, Strain/Indicator: TA97, Metabolic Activation: NONE, Method: PREINCUBATION): inactive; negative | mutagenic call (Test System: AMES SALMONELLA TYPHIMURIUM, Strain/Indicator: TA97, Metabolic Activation: RAT, LIVER, S-9, AROCLOR 1254, Method: PREINCUBATION): inactive; negative | mutagenic call [2]: inactive; negative | mutagenic call (Test System: AMES SALMONELLA TYPHIMURIUM, Strain/Indicator: TA100, Metabolic Activation: RAT, LIVER, S-9, AROCLOR 1254, Method: PREINCUBATION): inactive; negative | mutagenic call (Test System: CHINESE HAMSTER V-79, Strain/Indicator: V-79/8-AZAGUANINE, Metabolic Activation: NONE): inactive; negative
